Measured values published in the RepoRT retention time repository (doi:10.1007/s00216-021-03828-0).

What was measured:
Conditions in all cases: stereoisomer not certain
[1] = RP, Merck Supelco Ascentis Express C18, 100 × 2.1 mm, 2 µm, 39 °C, 0.3 mL/min, estimated dead time 0.73 min; A: water + 0.1% formic acid, pH 3; B: acetonitrile + 0.1% formic acid, pH 3; gradient (min/%B) 0/5 2/5 17/99.9 20/99.9
[2] = RP, Merck Supelco Ascentis Express C18, 100 × 2.1 mm, 2 µm, 40 °C, 0.2 mL/min, estimated dead time 1.1 min; A: water + 0.1% formic acid, pH 3; B: acetonitrile + 0.1% formic acid, pH 3; gradient (min/%B) 0/5 2/5 17/99.9 20/99.9
[3] = as above; remark: listed apart in the source
[4] = RP, Merck Supelco Ascentis Express C18, 100 × 2.1 mm, 2 µm, 40 °C, 0.4 mL/min, estimated dead time 0.55 min; A: water + 0.1% formic acid, pH 3; B: acetonitrile + 0.1% formic acid, pH 3; gradient (min/%B) 0/5 2/5 17/99.9 20/99.9
[5] = RP, Merck Supelco Ascentis Express C18, 100 × 2.1 mm, 2 µm, 40 °C, 0.25 mL/min, estimated dead time 0.88 min; A: water + 0.1% formic acid, pH 3; B: acetonitrile + 0.1% formic acid, pH 3; gradient (min/%B) 0/5 2/5 17/99.9 20/99.9

LC retention time [1]	LC retention time [2]	LC retention time [3]	LC retention time [4]	LC retention time [5]	SMILES
1.34 min	–	–	–	–	O=C(O)CCCC(=O)O [GLUTARATE]
–	–	1.37 min	–	–	O=C([O-])c1ccccn1 [PICOLINATE]
–	1.33 min	–	–	–	NC(Cc1ccc(O)cc1)C(=O)O (centres undefined) [TYROSINE]
18.2 min	18.7 min	–	17.4 min	18.7 min	CCCCCCCCC=CCCCCCCCCCCCCCC(=O)[O-] [NERVONATE]
9.96 min	11.2 min	–	9.27 min	10.5 min	CCC=CCC1C(=O)CCC1CC(=O)OC (centres undefined) [METHYL JASMONATE]
14 min	15.6 min	–	13.6 min	14.8 min	CC(C)=CCCC(C)=CCCC(C)=CCCC=C(C)CCC=C(C)CCC=C(C)C [SQUALENE]
–	–	–	1.07 min	–	NCC(O)c1ccc(O)c(O)c1 (centres undefined) [NORADRENALINE]
–	–	1.41 min	–	–	O=C(O)CCC(=O)C(=O)O [OXOGLUTARATE]
6.65 min	7.65 min	–	6.08 min	7.07 min	NC(=O)CCCCC1CCSS1 (centres undefined) [LIPOAMIDE]
9.1 min	10.2 min	–	8.46 min	9.59 min	CCOC(=O)Cc1c[nH]c2ccccc12 [ETHYL 3-INDOLEACETATE]
–	1.84 min	–	0.903 min	1.46 min	CC1(O)CCOC(=O)C1 (centres undefined) [MEVALOLACTONE]
–	–	–	1.09 min	–	O=CCc1ccccc1 [PHENYLACETALDEHYDE]
–	1.39 min	1.36 min	–	1.07 min	O=C([O-])c1c[nH]c(=O)[nH]c1=O [URACIL 5-CARBOXYLATE]
4.98 min	–	–	–	–	O=C(O)C(=O)Cc1ccccc1 [PHENYLPYRUVATE]
–	–	–	0.693 min	–	O=C(O)C=CC(=O)O [MALEATE]
10.9 min	12.1 min	–	10.6 min	11.5 min	CCCCCCCCCCCCCCCC(O)C(N)CO (centres undefined) [SPHINGANINE]
3.07 min	1.54 min	–	0.73 min	1.19 min	O=C(O)c1ccc[nH]1 [PYRROLE-2-CARBOXYLATE]
5.93 min	7.02 min	–	5.28 min	6.4 min	CC=CC=CC(=O)[O-] [SORBATE]
–	–	4.63 min	–	–	Oc1ccc(O)cc1 [HYDROQUINONE]
–	10.2 min	–	2.49 min	9 min	c1ccc2ncccc2c1 [QUINOLINE]
2.72 min	–	–	–	–	NC(Cc1c[nH]c2ccccc12)C(=O)O (centres undefined) [TRYPTOPHAN]
0.887 min	–	–	–	–	O=C(O)C=C(CC(=O)O)C(=O)O [TRANS-ACONITATE]
–	1.33 min	1.33 min	–	–	Nc1nc2nccnc2c(=O)[nH]1 [PTERIN]
–	1.34 min	1.32 min	–	–	O=C1CCC(C(=O)O)N1 (centres undefined) [OXOPROLINE]

Further lines, the compound ahead of its results:

SMILES	LC retention time [1]	LC retention time [2]	LC retention time [3]	LC retention time [4]	LC retention time [5]
Nc1ncnc2c1ncn2C1OC(CO)C(O)C1O (centres undefined) [ADENOSINE]	–	1.33 min	1.35 min	–	–
CCCCC(CC)COC(=O)c1ccccc1C(=O)OCC(CC)CCCC (centres undefined) [BIS(2-ETHYLHEXYL)PHTHALATE]	17.7 min	19 min	–	17 min	18.3 min
CC(CCCC(C)(C)O)C1CCC2C3CC=C4CC(O)CCC4(C)C3CCC12C (centres undefined) [25-HYDROXYCHOLESTEROL]	17.8 min	13.4 min	–	17 min	18.3 min
Cn1c(=O)c2c(ncn2C)n(C)c1=O [CAFFEINE]	4.12 min	4.96 min	–	3.63 min	4.48 min
NCCc1c[nH]c2ccc(O)cc12 [SEROTONIN]	1.12 min	1.77 min	–	0.857 min	1.35 min
CC12CCC3c4ccc(O)cc4CCC3C1CCC2O (stereo not drawn) [ESTRADIOL-17ALPHA]	9.22 min	10.3 min	–	8.64 min	9.66 min
CC12CCC(=O)C=C1CCC1C2C(O)CC2(C)C(C(=O)CO)CCC12 (centres undefined) [CORTICOSTERONE]	8.25 min	9.16 min	–	7.73 min	8.66 min
O=C(O)C(O)C(O)C(O)C(O)COP(=O)(O)O (centres undefined) [6-PHOSPHOGLUCONATE]	–	1.32 min	–	–	–
O=C/C=C/c1ccccc1 [TRANS-CINNAMALDEHYDE]	10.7 min	11.7 min	–	10.1 min	11.1 min
COc1cc(CCN)ccc1O [3-METHOXYTYRAMINE]	1.13 min	1.78 min	–	0.863 min	1.37 min
CC(C)=CCCC(C)C1CCC2C3CC=C4CC(O)CCC4(C)C3CCC12C (centres undefined) [DESMOSTEROL]	15.1 min	16.6 min	–	14.3 min	15.8 min
CC(=O)OCC(=O)C1CCC2C3CCC4=CC(=O)CCC4(C)C3CCC12C (centres undefined) [DEOXYCORTICOSTERONE ACETATE]	11.1 min	12.2 min	–	10.5 min	11.6 min
NCCc1ccc(O)cc1 [TYRAMINE]	0.883 min	1.4 min	–	0.673 min	1.09 min
Nc1cc(O)cc(C(=O)O)c1 [3-AMINO-5-HYDROXYBENZOATE]	–	1.32 min	–	–	–
NCC(O)c1ccccc1 (centres undefined) [PHENYLETHANOLAMINE]	0.883 min	1.4 min	–	0.673 min	1.09 min
CC(C)CCCC(C)C1CCC2C3=CC=C4CC(O)CCC4(C)C3CCC21C (centres undefined) [7-DEHYDROCHOLESTEROL]	15.1 min	11.4 min	–	9.92 min	10.8 min
Nc1nc2c(ncn2C2OC3COP(=O)(O)OC3C2O)c(=O)[nH]1 (centres undefined) [CYCLIC GMP]	–	1.34 min	1.33 min	–	–
NCCc1ccccc1 [PHENETHYLAMINE]	–	–	–	0.963 min	1.54 min
NCCc1cc(O)c(O)cc1O [6-HYDROXYDOPAMINE]	–	–	–	0.893 min	–
Nc1ncnc2c1ncn2C1OC(CO)C2OP(=O)(O)OC21 (centres undefined) [ADENOSINE 2',3'-CYCLIC PHOSPHATE]	–	1.34 min	1.32 min	–	–
O=C(O)c1ccc2ccccc2n1 [2-QUINOLINECARBOXYLATE]	3.6 min	4.63 min	–	2.93 min	4.05 min
Nc1ccccc1O [2-AMINOPHENOL]	–	1.34 min	–	–	–
O=C(O)c1cccc(O)c1 [3-HYDROXYBENZOATE]	4.28 min	5.31 min	–	3.62 min	4.72 min
CNCCc1c[nH]c2ccccc12 [N-METHYLTRYPTAMINE]	3.89 min	4.88 min	–	3.32 min	4.33 min
O=C(O)C(O)COP(=O)(O)O (centres undefined) [3-PHOSPHOGLYCERATE]	–	1.39 min	–	0.663 min	–
